The text below walks through data of patent US12679878B2, “CRF2 receptor agonists and their use in therapy” (SANOFI, priority 2020, dated 2026).

The target in the assay is T1, CRF2R (Homo sapiens, UniProt Q13324).
T1 construct: expressed in transfected cells; host or cells: TeloHEAC
As to the kind of experiment: EC50 [nM] CRF2R. The source says:
Table printed on a drawing sheet, Fig. 3
Head of the field: EC50 [nM] CRF2R
The patent's description of the figure: FIG. 3: Representative sequences from peptides according to the invention with an optimized stability profile, wherein K[sema] stands for K[gGlu-C(O)(CH2)14CH3]
First copying reader's note: Second half (positions 13-38, C-term and activity) of the first table; the rows follow the same order, so the four rows of Peptide Seq. 1 are Patent Sequence N° 130, 171, 172 and 173.
Where the first naming reader finds the target: head: EC50 [nM] CRF2R

For orientation: EC50 means the concentration giving half of the maximal effect. A low value points to a more potent agent.

SMILES strings stand for the structures. Starred links: 1 amine or outer side, 2 acyl side, 3 side chain; linkers in the order of their positions; H or OH if unused. Residues, ends and D or L forms follow the SMILES beside them. Groups on a side chain read outwards from the residue. *: point of attachment. γGlu = O=C(O)[C@H](CCC(=O)[*:2])N[*:1]; Palmitoyl = CCCCCCCCCCCCCCCC(=O)*

T1 sequence (Q13324 whole entry, looked up): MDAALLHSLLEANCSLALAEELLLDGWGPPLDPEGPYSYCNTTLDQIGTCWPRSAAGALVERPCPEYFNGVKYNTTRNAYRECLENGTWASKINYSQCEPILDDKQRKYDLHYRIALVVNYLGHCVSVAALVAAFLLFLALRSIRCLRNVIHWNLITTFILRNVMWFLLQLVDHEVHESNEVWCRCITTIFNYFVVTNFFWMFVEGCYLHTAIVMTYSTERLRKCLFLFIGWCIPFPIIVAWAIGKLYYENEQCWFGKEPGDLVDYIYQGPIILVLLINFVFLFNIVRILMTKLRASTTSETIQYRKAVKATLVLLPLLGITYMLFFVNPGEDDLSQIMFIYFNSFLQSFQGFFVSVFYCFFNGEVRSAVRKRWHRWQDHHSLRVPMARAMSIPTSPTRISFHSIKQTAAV

As for `CCCCCCCCCCCCCCCC(=O)N[C@@H](CCC(=O)NCCCC[C@H](NC(=O)[C@H](CC(C)C)NC(=O)[C@H](CCCCN)NC(=O)[C@@H](NC(=O)[C@@H]1CCCN1C(=O)[C@@H](NC(=O)[C@H](CC(=O)O)NC(=O)[C@H](CC(C)C)NC(=O)[C@H](CO)NC(=O)[C@H](CC(C)C)NC(=O)[C@@H](NC(=O)[C@@H](N)[C@@H](C)CC)C(C)C)C(C)C)[C@@H](C)CC)C(=O)N[C@@H](CCCCN)C(=O)N[C@H](C(=O)N[C@@H](CC(C)C)C(=O)N[C@@H](CC(C)C)C(=O)N[C@@H](CCC(=O)O)C(=O)N[C@@H](CCC(N)=O)C(=O)N[C@@H](CCC(=O)O)C(=O)N[C@@H](CCCCN)C(=O)N[C@@H](CCC(N)=O)C(=O)N[C@@H](CCC(=O)O)C(=O)N[C@@H](CCCCN)C(=O)N[C@@H](CCC(=O)O)C(=O)N[C@@H](CCCCN)C(=O)N[C@@H](CCC(N)=O)C(=O)N[C@@H](CCC(N)=O)C(=O)N[C@@H](C)C(=O)N[C@@H](CCC(=O)O)C(=O)N[C@@H](CCCCN)C(=O)N[C@@H](CC(N)=O)C(=O)N[C@@H](C)C(=O)N[C@@H](CCC(N)=O)C(=O)N[C@H](C(=O)N[C@@H](CC(C)C)C(=O)N[C@@H](C)C(=O)N[C@@H](CCC(N)=O)C(=O)N[C@H](C(N)=O)C(C)C)[C@@H](C)CC)[C@@H](C)CC)C(=O)O` [SEQ ID NO: 3] (H-IVLSLDVPIKLK([γGlu-Palmitoyl])KILLEQEKQEKEKQQAEKNAQILAQV-NH2), the EC50 came to 0.04 nM.

As for `CCCCCCCCCCCCCCCC(=O)N[C@@H](CCC(=O)NCCCC[C@H](NC(=O)[C@H](CC(C)C)NC(=O)CNC(=O)[C@@H](NC(=O)[C@@H]1CCCN1C(=O)[C@@H](NC(=O)[C@H](CC(=O)O)NC(=O)[C@H](CC(C)C)NC(=O)[C@H](CO)NC(=O)[C@H](CC(C)C)NC(=O)[C@@H](NC(=O)[C@@H](N)[C@@H](C)CC)C(C)C)C(C)C)[C@@H](C)CC)C(=O)N[C@@H](CCC(N)=O)C(=O)N[C@@H](CCCCN)C(=O)N[C@@H](CC(C)C)C(=O)N[C@@H](CC(C)C)C(=O)N[C@@H](CCCCN)C(=O)N[C@@H](CCC(N)=O)C(=O)N[C@@H](CCC(=O)O)C(=O)N[C@@H](CCCCN)C(=O)N[C@@H](CCC(N)=O)C(=O)N[C@@H](CCC(=O)O)C(=O)N[C@@H](CCCCN)C(=O)N[C@@H](CCC(=O)O)C(=O)N[C@@H](CCCCN)C(=O)N[C@@H](CCC(N)=O)C(=O)N[C@@H](CCC(N)=O)C(=O)N[C@@H](C)C(=O)N[C@@H](CCC(=O)O)C(=O)N[C@H](C(=O)N[C@@H](CC(N)=O)C(=O)N[C@@H](C)C(=O)N[C@@H](CCCCN)C(=O)N[C@H](C(=O)N[C@@H](CC(C)C)C(=O)N[C@@H](C)C(=O)N[C@@H](CCC(N)=O)C(=O)N[C@H](C(N)=O)C(C)C)[C@@H](C)CC)[C@@H](C)O)C(=O)O` [SEQ ID NO: 4] (H-IVLSLDVPIGLK([γGlu-Palmitoyl])QKLLKQEKQEKEKQQAETNAKILAQV-NH2), a half-maximal effect (EC50) was put at 0.05 nM. As for `CCCCCCCCCCCCCCCC(=O)N[C@@H](CCC(=O)NCCCC[C@H](NC(=O)[C@H](CC(C)C)NC(=O)CNC(=O)[C@@H](NC(=O)[C@@H]1CCCN1C(=O)[C@@H](NC(=O)[C@H](CC(=O)O)NC(=O)[C@H](CC(C)C)NC(=O)[C@H](CO)NC(=O)[C@H](CC(C)C)NC(=O)[C@@H](NC(=O)[C@@H](N)[C@@H](C)CC)C(C)C)C(C)C)[C@@H](C)CC)C(=O)N[C@@H](CCC(N)=O)C(=O)N[C@@H](CCCCN)C(=O)N[C@@H](CC(C)C)C(=O)N[C@@H](CC(C)C)C(=O)N[C@@H](CCCCN)C(=O)N[C@@H](CCC(N)=O)C(=O)N[C@@H](CCC(N)=O)C(=O)N[C@@H](CCCNC(=N)N)C(=O)N[C@@H](CCC(N)=O)C(=O)N[C@@H](CCCNC(=N)N)C(=O)N[C@@H](CCCCN)C(=O)N[C@@H](CCC(=O)O)C(=O)N[C@@H](CCCNC(=N)N)C(=O)N[C@@H](CCC(N)=O)C(=O)N[C@@H](CCC(N)=O)C(=O)N[C@@H](C)C(=O)N[C@@H](CCC(=O)O)C(=O)N[C@@H](CCCCN)C(=O)N[C@@H](CC(N)=O)C(=O)N[C@@H](C)C(=O)N[C@@H](CCCNC(=N)N)C(=O)N[C@H](C(=O)N[C@@H](CC(C)C)C(=O)N[C@@H](C)C(=O)N[C@@H](CCCNC(=N)N)C(=O)N[C@H](C(N)=O)C(C)C)[C@@H](C)CC)C(=O)O` [SEQ ID NO: 6] (H-IVLSLDVPIGLK([γGlu-Palmitoyl])QKLLKQQRQRKERQQAEKNARILARV-NH2), a half-maximal effect (EC50) was put at 0.06 nM. In the case of `CCCCCCCCCCCCCCCC(=O)N[C@@H](CCC(=O)NCCCC[C@H](NC(=O)[C@@H](NC(=O)[C@H](CCCCN)NC(=O)[C@@H](NC(=O)[C@@H]1CCCN1C(=O)[C@@H](NC(=O)[C@H](CC(=O)O)NC(=O)[C@H](CC(C)C)NC(=O)[C@H](CO)NC(=O)[C@H](CC(C)C)NC(=O)[C@@H](NC(=O)[C@@H](N)Cc1ccccc1)[C@@H](C)O)C(C)C)[C@@H](C)O)[C@@H](C)CC)C(=O)N[C@@H](CCC(N)=O)C(=O)N[C@@H](CCCCN)C(=O)N[C@@H](CC(C)C)C(=O)N[C@@H](CC(C)C)C(=O)N[C@@H](CCCCN)C(=O)N[C@@H](CCC(N)=O)C(=O)N[C@@H](CCC(=O)O)C(=O)N[C@@H](CCCCN)C(=O)N[C@@H](CCC(N)=O)C(=O)N[C@@H](CCCCN)C(=O)N[C@@H](CCCCN)C(=O)N[C@@H](CCC(N)=O)C(=O)N[C@@H](CCCNC(=N)N)C(=O)N[C@@H](CCC(N)=O)C(=O)N[C@@H](CCCCN)C(=O)N[C@@H](C)C(=O)N[C@@H](CCCCN)C(=O)N[C@H](C(=O)N[C@@H](C)C(=O)N[C@@H](C)C(=O)N[C@@H](CCC(N)=O)C(=O)N[C@H](C(=O)N[C@@H](CC(C)C)C(=O)N[C@@H](C)C(=O)N[C@@H](CCC(N)=O)C(=O)N[C@H](C(N)=O)C(C)C)[C@@H](C)CC)[C@@H](C)O)C(=O)O` [SEQ ID NO: 8] (H-FTLSLDVPTKIK([γGlu-Palmitoyl])QKLLKQEKQKKQRQKAKTAAQILAQV-NH2), the EC50 worked out at 0.18 nM. Against the preceding compound, the EC50 is about 3-fold higher. `CCCCCCCCCCCCCCCC(=O)N[C@@H](CCC(=O)NCCCC[C@H](NC(=O)[C@@H](NC(=O)[C@H](CCCCN)NC(=O)[C@@H](NC(=O)[C@@H]1CCCN1C(=O)[C@@H](NC(=O)[C@H](CC(=O)O)NC(=O)[C@H](CC(C)C)NC(=O)[C@H](CO)NC(=O)[C@H](CC(C)C)NC(=O)[C@@H](NC(=O)[C@@H](N)Cc1ccccc1)[C@@H](C)O)C(C)C)[C@@H](C)O)[C@@H](C)CC)C(=O)N[C@@H](CCC(N)=O)C(=O)N[C@@H](CCCCN)C(=O)N[C@@H](CC(C)C)C(=O)N[C@@H](CC(C)C)C(=O)N[C@@H](CCCCN)C(=O)N[C@@H](CCC(N)=O)C(=O)N[C@@H](CCC(=O)O)C(=O)N[C@@H](CCCCN)C(=O)N[C@@H](CCC(N)=O)C(=O)N[C@@H](CCCCN)C(=O)N[C@@H](CCCCN)C(=O)N[C@@H](CCC(N)=O)C(=O)N[C@@H](CCCNC(=N)N)C(=O)N[C@@H](CCC(N)=O)C(=O)N[C@@H](CCCCN)C(=O)N[C@@H](C)C(=O)N[C@@H](CCCCN)C(=O)N[C@H](C(=O)N[C@@H](C)C(=O)N[C@@H](CCCCN)C(=O)N[C@@H](CCC(N)=O)C(=O)N[C@H](C(=O)N[C@@H](CC(C)C)C(=O)N[C@@H](CCC(=O)O)C(=O)N[C@@H](CCC(N)=O)C(=O)N[C@H](C(N)=O)C(C)C)[C@@H](C)CC)[C@@H](C)O)C(=O)O` [SEQ ID NO: 9] (H-FTLSLDVPTKIK([γGlu-Palmitoyl])QKLLKQEKQKKQRQKAKTAKQILEQV-NH2) displayed an EC50 of 0.08 nM.
